Data published in patent US20200046712A1, “PROCESS FOR MAKING 1,3,7- TRIMETHYLURIC ACID WATER SOLUBLE SALTS OR CO-CRYSTALS AND THEIR USAGE IN DIETARY SUPPLEMENTS OR FUNCTIONAL FOODS FORMULATIONS” (Arcadia Biotechnology Ltd., priority 2018, published 2020).
Where a name gives a salt, the structure may show the parent alone.

Experiment: Solubility in water
Format: physicochemical
Settings: 500 mg upon stirring in 8 oz of room temperature water

Cn1c(=O)c2c([nH]c(=O)n2C)n(C)c1=O [1,3,7-trimethyluric acid sodium salt]
solubility in water: dissolved completely
